Laboratory results reported in patent US20240246940A1, “HETEROARYL DERIVATIVE COMPOUND AND USE THEREOF” (VORONOI INC., priority 2021, published 2024).

Tests used:
[1] = system: SK-BR-3 cells (HER2 overexpressing cell line); experiment: SK-BR-3 cell proliferation inhibitory activity (CellTiter-Glo, 120 hours); format: cell-based; conditions: Homo sapiens
Procedure: (§1) To evaluate the cell proliferation inhibitory activity of the compound according to the present invention on HER2 and EGFR kinases, the following method was performed using HER2 overexpressing cell lines (SK-BR-3, BT-474, and N-87) and EGFR expressing cell line (HaCaT).
(§2) McCOY'S 5A supplemented with 10% FBS was used for SK-BR-3 cells, RPMI-1640 medium supplemented with 20% FBS was used for BT-474 cancer cells, and RPMI-1640 medium supplemented with 10% FBS was used for N-87 cancer cells. DMEM supplemented with 10% FBS was used for HaCaT cells.
(§3) For SK-BR-3 cells, 5000 cells were aliquoted into each well of a white clear bottom 96 well plate (Corning) 48 hours before treatment with the compounds of Examples. For BT-474 cells, 5000 cells were aliquoted into each well of a white clear bottom 96 well plate (Corning) 48 hours before treatment with the compounds of Examples. For N-87 cells, 5000 cells were aliquoted into each well of a white clear bottom 96 well plate (Corning) 24 hours before treatment with the compounds of Examples. For HaCaT cells, 3000 cells were aliquoted into each well of a white clear bottom 96 well plate (Corning) 24 hours before treatment with the compounds of Examples. For SK-BR-3 cells and BT-474 cells, the compounds of Examples were diluted in dimethyl sulfoxide (three-fold dilution, a total of 11 concentrations) and injected each in an amount of 1 μl to a final concentration of 0.2 nM to 10 μM. For N-87 cells, the compounds of Examples were diluted in dimethyl sulfoxide (five-fold dilution, a total of 11 concentrations) and injected each in an amount of 0.5 μl to a final concentration of […] to 5 μM. For HaCaT cells, the compounds of Examples were diluted in dimethyl sulfoxide (three-fold dilution, a total of 11 concentrations) and injected each in an amount of 0.5 μl to a final concentration of 0.8 nM to 45 μM. For the measurement of living cells, the cells were stored at room temperature for 10 minutes using CellTiter-Glo cell viability reagent (Promega) after a certain period of time (SK-BR-3: 120 hours, BT-474: 120 hours, N-87: 72 hours, and HaCaT: 72 hours) post treatment with the compounds of Examples, and the luminescence intensity thereof was measured using a reader (SynergyNeo, Biotek). Each test was repeated three times.
(§4) The result values were calculated as a cell growth rate (%) compared to those of the control group. A graph was created using the GraphPad Prism version 5.0 program, and GI50 values were calculated.

[2] = system: HaCaT cells (EGFR expressing cell line); experiment: HaCaT cell proliferation inhibitory activity (CellTiter-Glo, 72 hours); format: cell-based; conditions: Homo sapiens
Procedure: as §1, §2, §3, §4

| GI50 [1] | SMILES | GI50 [2] |
| --- | --- | --- |
| ≤ 150 nM | C=CC(=O)N1CC(Oc2cc3c(Nc4cc(-c5ccccc5)ccc4OC)ncnc3cc2OC)C1 [Example 5, 1-(3-((7-methoxy-4-((4-methoxy-[1,1′-biphenyl]-3-yl)amino)quinazolin-6-yl)oxy)azetidin-1-yl)prop-2-en-1-one] |  |
| 150 to 1000 nM | C=CC(=O)N1CC(Oc2cc3c(Nc4cc(-c5cccnc5)ccc4OC)ncnc3cc2OC)C1 [Example 6, 1-(3-((7-methoxy-4-((2-methoxy-5-(pyridin-3-yl)phenyl)amino)quinazolin-6-yl)oxy)azetidin-1-yl)prop-2-en-1-one] |  |
| ≤ 150 nM | C=CC(=O)N1CC(Oc2cc3c(Nc4cc(-c5ccc(F)cc5)ccc4OC)ncnc3cc2OC)C1 [Example 7, 1-(3-((4-((4′-fluoro-4-methoxy-[1,1′-biphenyl]-3-yl)amino)-7-methoxy-quinazolin-6-yl)oxy)azetidin-1-yl)prop-2-en-1-one] |  |
| 150 to 1000 nM | C=CC(=O)N1CC(Oc2cc3c(Nc4cc(-c5ccn6ncnc6c5)ccc4OC)ncnc3cc2OC)C1 [Example 30, 1-(3-((4-((5-([1,2,4]triazolo [1,5-a]pyridin-7-yl)-2-methoxyphenyl)amino)-7-methoxy-quinazolin-6-yl)oxy)azetidin-1-yl)prop-2-en-1-one] |  |
| 150 to 1000 nM | C=CC(=O)N1CC(Oc2cc3c(Nc4cc(-c5cnc6ccnn6c5)ccc4OC)ncnc3cc2OC)C1 [Example 32, 1-(3-((7-methoxy-4-((2-methoxy-5-(pyrazolo[1,5-a]pyrimidin-6-yl)phenyl)amino)quinazolin-6-yl)oxy)azetidin-1-yl)prop-2-en-1-one] |  |
| ≤ 150 nM | C=CC(=O)N1CC(Oc2cc3c(Nc4cc(-c5ccc6occc6c5)ccc4OC)ncnc3cc2OC)C1 [Example 37, 1-(3-((4-((5-(benzofuran-5-yl)-2-methoxyphenyl)amino)-7-methoxy-quinazolin-6-yl)oxy)azetidin-1-yl)prop-2-en-1-one] |  |
| 150 to 1000 nM | C=CC(=O)N1CC(Oc2cc3c(Nc4cc(-c5ccnn5C)ccc4OC)ncnc3cc2OC)C1 [Example 42, 1-(3-((7-methoxy-4-((2-methoxy-5-(1-methyl-1H-pyrazol-5-yl)phenyl)amino)quinazolin-6-yl)oxy)azetidin-1-yl)prop-2-en-1-one] |  |
| ≤ 150 nM | C=CC(=O)N1CC(Oc2cc3c(Nc4cc(-c5cccs5)ccc4OC)ncnc3cc2OC)C1 [Example 43, 1-(3-((7-methoxy-4-((2-methoxy-5-(thiophen-2-yl)phenyl)amino)quinazolin-6-yl)oxy)azetidin-1-yl)prop-2-en-1-one] |  |
| ≤ 150 nM | C=CC(=O)N1CC(Oc2cc3c(Nc4cc(-c5ccco5)ccc4OC)ncnc3cc2OC)C1 [Example 44, 1-(3-((4-((5-(furan-2-yl)-2-methoxyphenyl)amino)-7-methoxy-quinazolin-6-yl)oxy)azetidin-1-yl)prop-2-en-1-one] |  |
| ≤ 150 nM | C=CC(=O)N1CC(Oc2cc3c(Nc4cc(-c5ccoc5)ccc4OC)ncnc3cc2OC)C1 [Example 45, 1-(3-((4-((5-(furan-3-yl)-2-methoxyphenyl)amino)-7-methoxy-quinazolin-6-yl)oxy)azetidin-1-yl)prop-2-en-1-one] |  |
| 150 to 1000 nM | C=CC(=O)N1CC(Oc2cc3c(Nc4cc(-c5cncs5)ccc4OC)ncnc3cc2OC)C1 [Example 46, 1-(3-((7-methoxy-4-((2-methoxy-5-(thiazol-5-yl)phenyl)amino)quinazolin-6-yl)oxy)azetidin-1-yl)prop-2-en-1-one] |  |
| ≤ 150 nM | C=CC(=O)N1CC(Oc2cc3c(Nc4cc(-c5ccsc5)ccc4OC)ncnc3cc2OC)C1 [Example 47, 1-(3-((7-methoxy-4-((2-methoxy-5-(thiophen-3-yl)phenyl)amino)quinazolin-6-yl)oxy)azetidin-1-yl)prop-2-en-1-one] |  |
|  | C=CC(=O)N1CCC(Oc2cc3c(Nc4cc(-c5ccc(C)o5)ccc4OC)ncnc3cc2OC)CC1 [Example 86, 1-(4-((7-methoxy-4-((2-methoxy-5-(5-methylfuran-2-yl)phenyl)amino)quinazolin-6-yl)oxy)piperidin-1-yl)prop-2-en-1-one] | 150 to 1000 nM |
